Literature values, collected in patent US20140010884A1, “DERMATOLOGICAL COMPOSITIONS COMPRISING RETINOIDS, DISPERSED BENZOYL PEROXIDE AND CARRAGEENANS” (GALDERMA RESEARCH & DEVELOPMENT, priority 2008, published 2014).
Like-named read-outs stand apart in the source and are kept apart here.

Tests used:
[1] = in PEG 400 and ethanol
[2] = for decomposition time: 40° C.

Compound: CC1=C(/C=C/C(C)=C/C=C/C(C)=C/C(=O)O)C(C)(C)CCC1 [tretinoin]
- retinoid decomposing in presence of benzoyl peroxide (in 2 hours): 50%
- retinoid decomposing in presence of benzoyl peroxide (in 24 hours): 95%

Compound: O=C(OOC(=O)c1ccccc1)c1ccccc1 [benzoyl peroxide]
- solubility [1]: particularly soluble
- decomposition time ([2]; in PEG 400 (0.5 mg/g)): 1.4 days
- decomposition time ([2]; in ethanol): 29 days
- decomposition time ([2]; in propylene glycol): 53 days
- decomposition in suspension (dispersed form) ([2]; in water and propylene glycol, after storing for 90 days): not decomposed

Compound: COc1ccc(-c2ccc3cc(C(=O)O)ccc3c2)cc1C12CC3CC(CC(C3)C1)C2 [adapalene, 6-[3-(1-adamantyl)-4-methoxyphenyl]-2-naphthoic acid]
- decomposition of retinoid in presence of benzoyl peroxide (during 24 hours): no decomposition
